Measured values taken from publication PMC11881136, “Development of a Novel ^18F-Labeled Radioligand for Imaging Phosphodiesterase 7 with Positron Emission Tomography” (Molecular Pharmaceutics, 2025).
Like-named read-outs stand apart in the source and are kept apart here.

Experiments:
[1] = target: PDE7; experiment: Phosphodiesterase 7 inhibition assay (Eurofins); type: biochemical; conditions: for Inhibiton at 0.5 nM: PDE7, 0.5 nM
Method: (§1) The inhibition assay of phosphodiesterase 7 with compounds 1–7 was performed by Eurofins. The inhibition assay of other phosphodiesterases with compound 7 was performed by Reaction Biology Corporation at a concentration of 3 μM.

[2] = target: PDE7; design: method as in PMID 32246980; conditions: read-out: binding affinity KD toward PDE7; cited from earlier work
[3] = design: method as in PMID 32246980; conditions: cited from earlier work
[4] = test system: other PDEs subfamilies; experiment: Inhibition assay of other phosphodiesterases (Reaction Biology Corporation); type: biochemical; conditions: 3 μM; other than PDE4
Method: as §1

[5] = test system: PDE4; experiment: Inhibition assay of other phosphodiesterases: PDE4; type: biochemical; conditions: 3 μM
Method: as §1

[6] = target: T1, PDE4B (Homo sapiens, UniProt Q07343); experiment: Inhibition assay of other phosphodiesterases: PDE4B; type: biochemical
T1 construct: purchased Reaction Biology Corporation
T1 sequence (Q07343 whole entry, species assumed): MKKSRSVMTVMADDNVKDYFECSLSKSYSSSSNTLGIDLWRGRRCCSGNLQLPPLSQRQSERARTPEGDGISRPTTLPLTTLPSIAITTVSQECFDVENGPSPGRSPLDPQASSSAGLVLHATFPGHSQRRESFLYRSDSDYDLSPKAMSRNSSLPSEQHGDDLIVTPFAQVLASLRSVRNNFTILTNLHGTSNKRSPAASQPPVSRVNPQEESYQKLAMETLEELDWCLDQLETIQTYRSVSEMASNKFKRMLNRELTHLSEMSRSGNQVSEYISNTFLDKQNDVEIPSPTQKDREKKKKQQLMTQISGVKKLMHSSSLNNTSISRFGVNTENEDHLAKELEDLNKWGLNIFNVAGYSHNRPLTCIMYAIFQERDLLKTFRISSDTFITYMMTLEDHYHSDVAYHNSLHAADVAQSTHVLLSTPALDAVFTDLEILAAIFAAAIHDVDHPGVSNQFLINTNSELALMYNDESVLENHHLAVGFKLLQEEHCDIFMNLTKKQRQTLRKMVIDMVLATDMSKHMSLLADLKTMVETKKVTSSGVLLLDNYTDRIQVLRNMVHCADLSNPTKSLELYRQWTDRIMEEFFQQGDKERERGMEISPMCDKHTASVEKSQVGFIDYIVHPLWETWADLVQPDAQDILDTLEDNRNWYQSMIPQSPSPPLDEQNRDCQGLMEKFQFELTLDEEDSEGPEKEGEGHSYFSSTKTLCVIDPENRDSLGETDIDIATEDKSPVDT
Method: as §1

[7] = Log D, shake flask method; type: physicochemical; conditions: n-octanol/PBS
Method: PBS buffer (0.01 M) and n-octanol were presaturated with each other overnight before the measurement. The PDE7 ligand [^18F]7, PBS (0.01 M, 5 mL), and n-octanol (5 mL) were combined and vortexed for 3 min, and then centrifuged (∼14 000 rpm, 5 min). The PBS fraction and n-octanol fraction were weighted and counted by γ counter. The log D was calculated as log[(radioactivityn-octanol/weightn-octanol)/(radioactivityPBS/weightPBS)].

[8] = test system: 66 major CNS targets; experiment: Off-target binding profile against 66 major CNS targets; conditions: 10 μM; except 5-HT2B and Sigma1
[9] = target: 5-HT2B (Homo sapiens, UniProt P41595); experiment: Off-target binding: 5-HT2B
Chain of 5-HT2B (P41595 whole entry, species assumed): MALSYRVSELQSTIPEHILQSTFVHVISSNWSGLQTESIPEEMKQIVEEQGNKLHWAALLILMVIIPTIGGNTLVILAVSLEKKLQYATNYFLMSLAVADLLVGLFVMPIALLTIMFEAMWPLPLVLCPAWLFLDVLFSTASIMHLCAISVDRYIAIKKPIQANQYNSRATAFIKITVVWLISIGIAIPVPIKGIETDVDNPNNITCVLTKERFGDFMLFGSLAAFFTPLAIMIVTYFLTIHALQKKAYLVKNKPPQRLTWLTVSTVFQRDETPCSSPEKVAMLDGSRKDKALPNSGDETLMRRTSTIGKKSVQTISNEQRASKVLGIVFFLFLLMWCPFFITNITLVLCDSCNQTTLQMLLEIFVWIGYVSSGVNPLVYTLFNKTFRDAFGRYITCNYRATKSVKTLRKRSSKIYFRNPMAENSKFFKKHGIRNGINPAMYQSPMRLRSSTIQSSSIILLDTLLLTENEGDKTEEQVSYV

[10] = target: Sigma1 (Homo sapiens, UniProt Q99720); experiment: Off-target binding: Sigma1
Chain of Sigma1 (Q99720 whole entry): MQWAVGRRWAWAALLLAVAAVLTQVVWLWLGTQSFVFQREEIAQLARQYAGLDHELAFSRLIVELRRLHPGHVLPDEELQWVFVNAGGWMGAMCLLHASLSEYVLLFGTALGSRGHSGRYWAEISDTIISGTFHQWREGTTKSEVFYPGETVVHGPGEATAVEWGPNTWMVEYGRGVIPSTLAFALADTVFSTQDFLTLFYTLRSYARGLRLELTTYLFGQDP

[11] = test system: PDE7; experiment: In vitro autoradiography in rat brain sections; type: binding; conditions: blocker 10 μM
Method: Autoradiography studies were conducted as previously reported.[24],[25] In brief, SD rat brain sections ([…]) were preincubated with buffer (Tris-HCl, 50 mM) at ambient temperature for 20 min and then incubated with [^18F]7 (1 μCi/mL) for 30 min. After that, the brain sections were washed with cold buffer and water, dried with cold air, and exposed to the phosphor plate (12 h). In blocking studies, brain sections were incubated with [^18F]7 in the presence of compound 7 (10 μM) or P7–2104 (10 μM).

[12] = test system: PDE7; experiment: PET imaging in rat brains; type: in vivo
Method: PET imaging was carried out as previously reported.[26] [^18F]7 (30–40 uCi) was administered to SD rats via the tail vein, and dynamic scans were conducted with a G8 scanner (Sofie) for 1 h (n = 4). In blocking studies, elacridar (5 mg/kg) was administered intravenously at 20 min before the administration of [^18F]7, and P7–2104 or 7 (3 mg/kg) was administered intravenously at 10 min before the administration of [^18F]7 (n = 3). PET data were analyzed with PMOD (PMOD Technologies LLC, Switzerland).

[13] = In vitro stability in formulation solution (saline); type: physicochemical; conditions: up to 60 or 120 min
[14] = In vitro stability in mouse serum; type: in vitro ADME; conditions: up to 60 or 120 min
[15] = In vitro stability in rat serum; type: in vitro ADME; conditions: up to 60 or 120 min
[16] = In vitro stability in NHP serum; type: in vitro ADME; conditions: up to 60 or 120 min
[17] = In vitro stability in human serum; type: in vitro ADME; conditions: up to 60 or 120 min
[18] = Ex vivo whole-body biodistribution in CD-1 mice; design: species or system mouse
Method: Whole-Body biodistribution was carried out as previously reported.[27],[28] [^18F]7 (10 μCi/100 μL) was administered intravenously to CD-1 mice, which were sacrificed at 5, 15, 30, and 60 min after administration of [^18F]7 (n = 3). Tissues of interest were collected, weighted, and measured by a γ counter.

[19] = Radiometabolic analysis in rats; type: in vivo; conditions: rat, 30 min post administration
Method: [^18F]7 was injected via the tail vein of SD rats and then euthanized 30 min after administration of [^18F]7 (0.1 mCi per rat, n = 2). The brain was collected, homogenized, and cold acetonitrile (0.2 mL) was added then centrifuged (14 000g, 5 min) at 4 °C. This step was repeated until there was no obvious precipitation formed. Then the supernatant was injected into a radioHPLC with unlabeled 7 as the internal standard. Both [^18F]7 and its ^18F-metabolites were collected by HPLC and then measured by γ counter. The same procedure was conducted for plasma.

[20] = test system: PDE7; design: method as in PMID 26330158; conditions: read-out: PDE7 inhibitory potency IC50; cited from earlier work

For `CN(C)C(=O)c1cccc(F)c1Oc1ccc(Cl)c2c1C1(CCCCC1)OC(=O)N2` [Compound 1, 2-((8-Chloro-2-oxo-1,2-dihydrospiro[benzo[d][1,3]oxazine-4,1′-cyclohexan]-5-yl)oxy)-3-fluoro-N,N-dimethylbenzamide], the IC50 [1] is given as 0.41 nM, the “Inhibiton at 0.5 nM” value [1] is given as 50% and the Kd [2] is given as 0.8 nM. The brain uptake [3] was 0.25 %ID/g.

With `CN(C)C(=O)c1ccc(F)cc1Oc1ccc(Cl)c2c1C1(CCCCC1)OC(=O)N2` [Compound 2, 2-((8-Chloro-2-oxo-1,2-dihydrospiro[benzo[d][1,3]oxazine-4,1′-cyclohexan]-5-yl)oxy)-4-fluoro-N,N-dimethylbenzamide] the “Inhibiton at 0.5 nM” value [1] was 6%.

For `CN(C)C(=O)c1cc(F)ccc1Oc1ccc(Cl)c2c1C1(CCCCC1)OC(=O)N2` [Compound 3, 2-((8-Chloro-2-oxo-1,2-dihydrospiro[benzo[d][1,3]oxazine-4,1′-cyclohexan]-5-yl)oxy)-5-fluoro-N,N-dimethylbenzamide], the “Inhibiton at 0.5 nM” value [1] was -17%.

For `CN(C)C(=O)c1c(F)cccc1Oc1ccc(Cl)c2c1C1(CCCCC1)OC(=O)N2` [Compound 4, 2-((8-Chloro-2-oxo-1,2-dihydrospiro[benzo[d][1,3]oxazine-4,1′-cyclohexan]-5-yl)oxy)-6-fluoro-N,N-dimethylbenzamide], the “Inhibiton at 0.5 nM” value [1] was -10%.

For `O=C1Nc2c(Cl)ccc(Oc3c(F)cccc3C(=O)N3CCC3)c2C2(CCCCC2)O1` [Compound 5, 5-(2-(Azetidine-1-carbonyl)-6-fluorophenoxy)-8-chlorospiro[benzo[d][1,3]oxazine-4,1′-cyclohexan]-2(1H)-one], the IC50 [1] was 0.04 nM and the “Inhibiton at 0.5 nM” value [1] was 68%.

In the case of `CN(C(=O)c1cccc(F)c1Oc1ccc(Cl)c2c1C1(CCCCC1)OC(=O)N2)C1CC1` [Compound 6, 2-((8-Chloro-2-oxo-1,2-dihydrospiro[benzo[d][1,3]oxazine-4,1′-cyclohexan]-5-yl)oxy)-N-cyclopropyl-3-fluoro-N-methylbenzamide], the “Inhibiton at 0.5 nM” value [1] is reported as -13%.

In the case of `O=C1Nc2c(Cl)ccc(Oc3c(F)cccc3C(=O)N3CC(F)C3)c2C2(CCCCC2)O1` [Compound 7, 8-Chloro-5-(2-fluoro-6-(3-fluoroazetidine-1-carbonyl)phenoxy)spiro[benzo[d][1,3]oxazine-4,1′-cyclohexan]-2(1H)-one], the IC50 [1] is reported as 0.18 nM, the “selectivity for PDE7 over other PDE subfamilies” value [1] is reported as greater than 400 fold and the “Inhibiton at 0.5 nM” value [1] is reported as 51%. The “inhibition of other PDEs subfamilies” value [4] was less than 50 % inhibition, the “activity against PDE4” value [5] was “moderately active” and the IC50 [6] was 77.3 nM. For the same compound, the PDE4B inhibition ([6]; 3 μM) was 92 % inhibition, the logD [7] was 3.27 and the “off-target binding (>50% inhibition) against 66 major CNS targets” value [8] was “No significant off-target binding”. For the same compound, the Ki [9] was 3360 nM, the Ki [10] was 7410 nM and the “reduction of [18F]7 radioactivity signal in striatum (autoradiography blocking)” value [11] was 56%. The “reduction of [18F]7 SUVpeak in striatum (PET blocking)” value ([12]; blocker 3 mg/kg i.v. with elacridar 5 mg/kg, SD rats) was 51%.

For `O=C1Nc2c(Cl)ccc(Oc3c(F)cccc3C(=O)N3CC([18F])C3)c2C2(CCCCC2)O1` [[^18F]7], the IC50 [1] was 0.18 nM, the “selectivity for PDE7 over other PDE subfamilies” value [1] was greater than 400 fold and the “in vitro stability in saline” value [13] was “no obvious decomposition or metabolite was observed”. The “in vitro stability in mouse serum” value [14] was “no obvious decomposition or metabolite was observed”, the “in vitro stability in rat serum” value [15] was “no obvious decomposition or metabolite was observed” and the “in vitro stability in NHP serum” value [16] was “no obvious decomposition or metabolite was observed”. The “in vitro stability in human serum” value [17] was “no obvious decomposition or metabolite was observed”, the “SUVpeak in striatum after elacridar” value ([12]; SD rats, elacridar 5 mg/kg i.v. 20 min before tracer) was 2.8 and the “SUVpeak in striatum, baseline” value ([12]; SD rats, i.v., baseline) was 0.35. The “increase of SUVpeak in striatum by elacridar” value ([12]; elacridar 5 mg/kg vs baseline) was 700%, the “bone uptake at 5 min” value ([18]; 5 min) was 1.6 %ID/g and the “bone uptake at 60 min” value ([18]; 60 min) was 0.3 %ID/g. The “initial radioactivity in liver, small intestine, kidney, pancreas, lung, and heart” value ([18]; i.v., initially) was greater than 5 %ID/g, the “brain uptake (biodistribution)” value ([18]; initially) was “low uptake” and the “intact parent fraction in brain” value [19] was 92%. The “intact parent fraction in plasma” value [19] was 67%.

In the case of `O=C1Nc2c(Cl)ccc(OCC[18F])c2C2(CCCCC2)N1` [[^18F]MICA-003], the IC50 [20] is listed as 17 nM.
